According to ChEMBL document CHEMBL5050844 (2019):

Tests used:
[1] = Induction of anti-CD3/CD28 antibodies-stimulated human CD4+ T cell activation at 1.11 uM assessed fold increase in cell proliferation measured by flow cytometry analysis; assay type: functional, T cell line
[2] = Induction of anti-CD3/CD28 antibodies-stimulated human CD4+ T cell activation at 10 uM assessed fold increase in cell proliferation measured by flow cytometry analysis; assay type: functional, T cell line
B cell = experiment: Induction of anti-IgM-stimulated human CD20+ B cell activation at 10 to 1000 uM assessed as increase in CD69 expression measured as mean fluorescence intensity AUC by flow cytometry analysis; assay type: functional, cell-based; details: dose 10-1000 µM
[3] = Induction of anti-CD3/CD28 antibodies-stimulated human T cell activation at 10 uM assessed fold increase in TNF-alpha secretion measured by ELISA assay; assay type: functional, T cell line
[4] = Induction of anti-CD3 antibodies-stimulated human CD4+ T cell activation at 1.11 uM assessed fold increase in CD69 expression measured by flow cytometry analysis; assay type: functional, T cell line; also: reference of the scale not given here
[5] = Induction of anti-CD3 antibodies-stimulated human T cell activation at 1.11 uM assessed fold increase in TNF-alpha secretion measured by ELISA assay; assay type: functional, T cell line; also: reference of the scale not given here
[6] = Induction of anti-CD3/CD28 antibodies-stimulated human T cell activation at 1.11 uM assessed fold increase in TNF-alpha secretion measured by ELISA assay; assay type: functional, T cell line
[7] = Induction of anti-CD3/CD28 antibodies-stimulated human CD8+ T cell activation at 10 uM assessed fold increase in cell proliferation measured by flow cytometry analysis; assay type: functional, T cell line
[8] = Induction of anti-CD3 antibodies-stimulated human CD8+ T cell activation at 1.11 uM assessed fold increase in CD69 expression measured by flow cytometry analysis; assay type: functional, T cell line; also: reference of the scale not given here
[9] = Induction of anti-CD3 antibodies-stimulated human CD8+ T cell activation at 10 uM assessed fold increase in CD69 expression measured by flow cytometry analysis; assay type: functional, T cell line; also: reference of the scale not given here
[10] = Induction of anti-CD3/CD28 antibodies-stimulated human anergic T cell activation at 0.37 uM assessed fold increase in IFN-gamma secretion measured by ELISA assay; assay type: functional, T cell line
[11] = Induction of anti-CD3/CD28 antibodies-stimulated human CD4+ T cell activation at 10 uM assessed fold increase in CD69 expression measured by flow cytometry analysis; assay type: functional, T cell line
[12] = Induction of anti-CD3 antibodies-stimulated human exhausted T cell activation assessed fold increase in IFN-gamma secretion measured by ELISA assay; assay type: functional, T cell line; also: reference of the scale not given here
[13] = Induction of allogenic human T cell activation at 3 uM assessed fold increase in cell proliferation; assay type: functional, T cell line
[14] = Induction of anti-CD3/CD28 antibodies-stimulated human anergic T cell activation at 1.11 uM assessed fold increase in IFN-gamma secretion measured by ELISA assay; assay type: functional, T cell line
[15] = Induction of anti-CD3 antibodies-stimulated human T cell activation at 8 uM assessed fold increase in CD25 expression measured by ELISA assay; assay type: functional, T cell line; also: reference of the scale not given here
[16] = Induction of anti-CD3/CD28 antibodies-stimulated human CD4+ T cell activation at 1.11 uM assessed fold increase in CD69 expression measured by flow cytometry analysis; assay type: functional, T cell line
[17] = Induction of anti-CD3/CD28 antibodies-stimulated human anergic T cell activation at 10 uM assessed fold increase in IFN-gamma secretion measured by ELISA assay; assay type: functional, T cell line
[18] = Induction of activation of human CD56+ CD3- NK cells co-cultured with human K562 cells in 1:1 ratio and assessed as increase in IFN-gamma secretion at 10 uM measured by ELISA assay; assay type: functional, Natural killer cell
[19] = Induction of activation of human CD56+ CD3- NK cells co-cultured with human K562 cells in 1:1 ratio and assessed as increase in TNF-alpha secretion at 10 uM measured by ELISA assay; assay type: functional, Natural killer cell
[20] = Induction of anti-CD3 antibodies-stimulated human T cell activation at 1.11 uM assessed fold increase in IFN-gamma secretion measured by ELISA assay; assay type: functional, T cell line; also: reference of the scale not given here
[21] = Induction of anti-CD3 antibodies-stimulated human T cell activation at 1 uM assessed fold increase in CD25 expression measured by ELISA assay; assay type: functional, T cell line; also: reference of the scale not given here
[22] = Induction of allogenic human T cell activation at 10 uM assessed fold increase in cell proliferation; assay type: functional, T cell line
[23] = Induction of anti-CD3/CD28 antibodies-stimulated human T cell activation at 1 uM assessed fold increase in IL-2 secretion measured by ELISA assay; assay type: functional, T cell line
[24] = Induction of anti-CD3 antibodies-stimulated human T cell activation at 10 uM assessed fold increase in TNF-alpha secretion measured by ELISA assay; assay type: functional, T cell line; also: reference of the scale not given here
[25] = Induction of anti-CD3/CD28 antibodies-stimulated human T cell activation at 4 uM assessed fold increase in IL-2 secretion measured by ELISA assay; assay type: functional, T cell line
[26] = Induction of anti-CD3/CD28 antibodies-stimulated human T cell activation at 0.3 uM assessed fold increase in IL-2 secretion measured by ELISA assay; assay type: functional, T cell line
[27] = Induction of anti-CD3/CD28 antibodies-stimulated human CD8+ T cell activation at 1.11 uM assessed fold increase in cell proliferation measured by flow cytometry analysis; assay type: functional, T cell line
[28] = Induction of activation of human CD56+ CD3- NK cells co-cultured with human K562 cells in 1:1 ratio and assessed as increase in TNF-alpha secretion at 2.5 uM measured by ELISA assay; assay type: functional, Natural killer cell
[29] = Induction of anti-CD3/CD28 antibodies-stimulated human T cell activation at 1 uM assessed fold increase in CD25 expression measured by ELISA assay; assay type: functional, T cell line
[30] = Induction of anti-CD3 antibodies-stimulated human T cell activation at 1.11 uM assessed fold increase in GM-CSF secretion measured by ELISA assay; assay type: functional, T cell line; also: reference of the scale not given here
[31] = Induction of anti-CD3/CD28 antibodies-stimulated human T cell activation at 4 uM assessed fold increase in CD25 expression measured by ELISA assay; assay type: functional, T cell line
[32] = Induction of anti-CD3 antibodies-stimulated human exhausted T cell activation assessed fold increase in IL-2 secretion measured by ELISA assay; assay type: functional, T cell line; also: reference of the scale not given here
[33] = Induction of activation of human CD56+ CD3- NK cells co-cultured with human K562 cells in 1:1 ratio and assessed as increase in IFN-gamma secretion at 2.5 uM measured by ELISA assay; assay type: functional, Natural killer cell
[34] = Induction of anti-CD3/CD28 antibodies-stimulated human T cell activation at 1.11 uM assessed fold increase in GM-CSF secretion measured by ELISA assay; assay type: functional, T cell line
[35] = Induction of anti-CD3/CD28 antibodies-stimulated human CD8+ T cell activation at 10 uM assessed fold increase in CD69 expression measured by flow cytometry analysis; assay type: functional, T cell line
[36] = Induction of activation of human CD56+ CD3- NK cells co-cultured with human K562 cells in 1:1 ratio and assessed as increase in IFN-gamma secretion at 0.625 uM measured by ELISA assay; assay type: functional, Natural killer cell
[37] = Induction of activation of human CD56+ CD3- NK cells co-cultured with human K562 cells in 1:1 ratio and assessed as increase in TNF-alpha secretion at 0.625 uM measured by ELISA assay; assay type: functional, Natural killer cell

SMILES	fold change (FC) [1]	fold change (FC) [2]	AUC (B cell)	fold change (FC) [3]	fold change (FC) [4]	fold change (FC) [5]	fold change (FC) [6]	fold change (FC) [7]	fold change (FC) [8]	fold change (FC) [9]	fold change (FC) [10]	fold change (FC) [11]	fold change (FC) [12]	fold change (FC) [13]	fold change (FC) [14]	fold change (FC) [15]	fold change (FC) [16]	fold change (FC) [17]	fold change (FC) [18]	fold change (FC) [19]	other results
Cn1cnnc1C(F)(F)[C@](C)(F)c1cccc(N2Cc3c(cc(C(=O)N4CC[C@H](O)C4)cc3C(F)(F)F)C2=O)c1	3.01	>4	< 0.5	2.01	1.201	2.01	<=1.5	3.01	<=1.2	1.201	<=2.5	1.401	<=1.4	<=2	<=2.5	>=1.001	1.201	>4.01	<=1	1.01	fold change (FC) [20]: <=2; fold change (FC) [21]: 0.801; fold change (FC) [22]: <=2; fold change (FC) [23]: 2.51; fold change (FC) [24]: 1.51; fold change (FC) [25]: >=7.5; fold change (FC) [26]: 1.01; fold change (FC) [27]: <=2; fold change (FC) [28]: 1.01; fold change (FC) [29]: 1.01; fold change (FC) [30]: <=1.5; fold change (FC) [31]: 1.31; fold change (FC) [32]: 2.51; fold change (FC) [33]: 1.01; fold change (FC) [34]: 1.51; fold change (FC) [35]: 1.201; fold change (FC) [36]: 1.01; fold change (FC) [37]: 1.01
Cc1cc(C(=O)Nc2cccc(C3(Cc4nncn4C)COC3)c2)nc(C2CC2)n1	>4	>4	> 1.51	2.01	1.401	1.51	2.01	>4	1.201	1.401	2.51	1.401	1.41	<=2	2.51	>=1.001	1.401	>4.01	>=5	>=5	fold change (FC) [20]: 2.01; fold change (FC) [21]: >=1.001; fold change (FC) [22]: >3; fold change (FC) [23]: >=7.5; fold change (FC) [24]: 1.51; fold change (FC) [25]: >=7.5; fold change (FC) [26]: 5; fold change (FC) [27]: 3.01; fold change (FC) [28]: 2.01; fold change (FC) [29]: >=1.76; fold change (FC) [30]: 2.01; fold change (FC) [31]: 1.51; fold change (FC) [32]: >3.01; fold change (FC) [33]: 2.01; fold change (FC) [34]: 2.01; fold change (FC) [35]: 1.201; fold change (FC) [36]: 2.01; fold change (FC) [37]: 1.01
C[C@H](Cc1nncn1C)c1cccc(N2Cc3c(cc(CN4CC(C)(O)C4)cc3C(F)(F)F)C2=O)c1	>4	>4	0.5	2.01	>1.601	1.51	2.01	>4	1.201	1.401	<=2.5	1.401	>1.61	<=2	>4.01	>=1.001	1.401	>4.01	>=5	2.01	fold change (FC) [20]: <=2; fold change (FC) [21]: >=1.001; fold change (FC) [22]: 2.01; fold change (FC) [23]: >=7.5; fold change (FC) [24]: 1.51; fold change (FC) [25]: >=7.5; fold change (FC) [26]: 2.51; fold change (FC) [27]: 3.01; fold change (FC) [28]: 2.01; fold change (FC) [29]: 1.31; fold change (FC) [30]: 2.01; fold change (FC) [31]: 1.31; fold change (FC) [32]: 2.51; fold change (FC) [33]: 2.01; fold change (FC) [34]: 2.01; fold change (FC) [35]: 1.201; fold change (FC) [36]: 2.01; fold change (FC) [37]: 1.01
